In article PMC12381781, “Structural and functional insights into the selective inhibition of mutant tau aggregation by purpurin and oleocanthal in frontotemporal dementia” (Protein Science : A Publication of the Protein Society, 2025):

Test system: SY5Y-TauP301L-EGFP cells
Experiment: SH-SY5Y seeding assay, Triton X-100 fractionation and western blot
Assay type: cell-based
Source text: SH‐SY5Y cells were transfected with the AAVS1 CAG rtTA3 TauP301L 2N4R‐EGFP plasmid using ScreenFect‐A‐plus Transfection Reagent (ScreenFect GmbH). AAVS1 CAG rtTA3 TauP301L 2N4R‐EGFP was a gift from Gerold Schmitt‐Ulms (Addgene plasmid #132393; http://n2t.net/addgene:132393; RRID: Addgene_132393). Stable cell lines expressing TauP301L 2N4R‐EGFP were generated via puromycin selection and are referred to as SY5Y‐TauP301L‐EGFP cells. Stable expression of the inducible TauP301L‐EGFP construct was confirmed by fluorescence microscopy and Western blot after doxycycline induction.
SH‐SY5Y and SY5Y‐TauP301L‐EGFP cells were plated at 250,000 cells per well on Geltrex™‐coated culture plates (Gibco, # A1413201) and maintained in complete DMEM. After 24 h, the medium was replaced with CTS™ Neurobasal™ A Medium (Gibco, # A1371201) supplemented with 1× B‐27™ Supplement (ThermoFisher Scientific, #17504044), […] L‐glutamine, and 1% Penicillin–Streptomycin (complete neurobasal medium). Cells were differentiated by treatment with 10 μM all‐trans‐retinoic acid (RA; Sigma‐Aldrich, # R2625) for 72 h. The differentiation was continued in complete neurobasal media supplemented with 10 μM RA and 50 ng/mL recombinant human brain‐derived neurotrophic factor (BDNF) (R&D Systems, #248‐BDB‐250) for another 72 h.
Differentiated SY5Y‐TauP301L‐EGFP cells were pre‐treated with 0.5 μg/mL doxycycline (Sigma‐Aldrich, # D3447) for 24 h to induce the expression of TauP301L‐EGFP. Doxycycline was maintained in the cell culture media throughout the seeding assay. Cells were transduced with tau aggregation reaction products, standardized to 100 nM tau peptide. Transduction mixtures were prepared by combining the tau aggregation reaction products with TurboFect™ Transfection Reagent (Thermo Fisher Scientific Inc.) in Opti‐MEM™. The mixture was briefly vortexed and incubated at room temperature for 15 min before adding to cells. After 72 h, cells were processed for Triton X‐100 fractionation and western blot analysis, as described below.
Triton X‐100 soluble and insoluble fractions were prepared as described previously with minor modifications (Annadurai, Malina, Malohlava, et al., [2022]). SY5Y‐TauP301L‐EGFP cells were harvested in 1× Tris‐buffered saline (TBS) containing 0.05% Triton X‐100, supplemented with protease and phosphatase inhibitors (Roche, #04693116001 and #04906837001). After centrifugation at 1000 × g for 10 min at 4°C, the supernatant was ultracentrifuged at 24,400 × g for 1 h at 4°C to separate Triton X‐100 soluble and insoluble fractions. The insoluble fraction was resuspended in radioimmunoprecipitation assay (RIPA) buffer (Thermo Fisher Scientific, #89901) with protease and phosphatase inhibitors for further analysis.
Equal volumes of soluble and insoluble fractions were resolved by SDS‐PAGE and transferred onto nitrocellulose membranes using the Trans‐Blot Turbo Transfer System (Bio‐Rad). […]
Densitometric analysis of insoluble tau bands was performed by first normalizing total tau signal intensities to GAPDH levels measured in the corresponding soluble fractions. […]

[1] = cells transduced with P301L peptide aggregation products formed with compound vs without, 72 h

C/C=C(/C=O)[C@@H](CC=O)CC(=O)OCCc1ccc(O)cc1 [OLC, oleocanthal]
pSer262, T22, or total tau levels, soluble fractions (P301L peptide aggregation products, across treatments): no significant differences | T22 or pSer262 tau, soluble and insoluble fractions (WT peptide aggregation products formed with compound vs control): no substantial differences | oligomeric tau T22 level, insoluble fraction [1]: significantly reduced | pSer262 tau level, insoluble fraction [1]: significantly reduced | total tau level, insoluble fraction [1]: significantly reduced
